In patent publication US20230083012A1, “DIHYDROPYRIMIDINE DERIVATIVES AND USES THEREOF IN THE TREATMENT OF HBV INFECTION OR OF HBV-INDUCED DISEASES” (priority 2019, published 2023) one finds EC50 and CC50 data, which are given here for 26 molecules.

Where two headings read alike, the source gives them in different places. Bounds are passed on as bounds.

One data set concerns HBV. In words: Anti-HBV activity in HepG2.2.15 cells (HBV DNA in culture medium by qPCR). The data set is classed as cell-based. The following applies: Hepatitis B virus, HepG2.2.15, 144 h. The protocol:
Example 2: Anti-Viral Assay in HepG2.2.15 Cells
(§1) HepG2.2.15 (the HepG2.2.15 cell line can be produced by transfection of the HepG2 cell line as described in Sells, Chen, and Acs 1987 (Proc. Natl. Acad. Sci. USA 84: 1005-1009), and the HepG2 cell line is available from ATCC® under number HIB-8065™)
(§2) HepG2.2.15 cells were plated into 96-well plate in 2% FBS culture medium at the density of 40,000 cells/well and 5,000 cells/well for HBV inhibitory activity and cytotoxicity determination, respectively. After incubation at 37° C., 5% CO2 overnight, cells were treated with medium containing compounds for 6 days with medium and compounds refreshed after 3 days of treatment. Each compound was tested in a 1:3 serial dilutions at 8 different concentrations in triplicate. The highest concentration of the compounds was 10 uM or 1 uM for anti-HBV activity assay and 100 uM for cytotoxicity determination.
The change of HBV DNA level induced by the compounds was assessed by quantitative real-time polymerase chain reaction (qPCR). Briefly, the HBV DNA in the culture medium was extracted using QIAamp 96 DNA Blood Kit according to the manual and then quantified by real-time PCR assay using the primers and probe in the table 2 below.
(§3) 2) DATA Analysis EC50 and CC50 values are calculated by the GRAPTIPAD PRISM software.
(In qPCR the cycle at which signal appears reflects the starting amount.)

Data set [1] in a line: Cytotoxicity determination in HepG2.2.15 cells (CCK-8 cell viability). The class given is cell-based. As to conditions: human, 6 days treatment, CCK-8 assay, highest concentration 100 uM. The protocol: as §1, §2
Cell viability was determined by CCK-8 assay. After 6 days of compounds treatment, 20 μl CCK-8 reagents were added to each well of cytotoxicity assay plates. Cell plates were incubated at 37° C., 5% CO2 for 2.5 h. The absorbance at 450 nm wavelength and the absorbance at 630 nm wavelength as reference was measured.
as §3

Setting [2] is: HepG2.2.15 cells, 6 days treatment, HBV DNA in culture medium quantified by real-time PCR, read-out: EC50.

Broadly, the EC50 is the concentration needed to bring the measured effect to its halfway point. By CC50 is commonly meant the concentration at which the toxic effect on the cells reaches its halfway point. Low values mean harm at low concentration, high ones better tolerance by the cells.

As to `CCOC(=O)C1=C(CN2CC(F)(F)[C@@H]3CN(S(=O)(=O)NC(C)=O)C[C@@H]32)NC(c2nccs2)=N[C@H]1c1cccc(F)c1C` (single isomer, unassigned) [Compound 32], the EC50 in the data set with HBV (setting [2]) was 3.4 nM. The molecule also gave a CC50 at 6 days in data set [1] of 31800 nM.
The like results for `CCOC(=O)C1=C(CN2CC(F)(F)[C@@H]3CN(S(N)(=O)=O)C[C@@H]32)NC(c2nccs2)=N[C@H]1c1cccc(F)c1C` (single isomer, unassigned) [Compound 33] were, in that order, 2.4 nM and 14600 nM.
On to `CCOC(=O)C1=C(CN2CC(F)(F)[C@H]3[C@@H]2CCN3S(N)(=O)=O)NC(c2nccs2)=N[C@H]1c1cccc(F)c1C` (single isomer, unassigned) [Compound 34], for which the EC50 in the data set with HBV (setting [2]) was determined as 12 nM. The molecule further yielded a CC50 at 6 days in data set [1] of 14300 nM.
As to `CCOC(=O)C1=C(CN2CC(F)(F)[C@@H]3CN(C(N)=O)C[C@@H]32)NC(c2nccs2)=N[C@H]1c1cccc(F)c1C` (single isomer, unassigned) [Compound 35], the EC50 in the data set on HBV (setting [2]) is 13.3 nM. The midpoint of cytotoxicity in data set [1], the CC50 at 6 days, lay at 35200 nM.
On the same counts, the results for `CCOC(=O)C1=C(CN2CC(F)(F)[C@H]3[C@@H]2CCN3C(N)=O)NC(c2nccs2)=N[C@H]1c1cccc(F)c1C` (single isomer, unassigned) [Compound 36] are 30.1 nM and 26000 nM.
The like results for `COC(=O)C1=C(CN2CC(F)(F)[C@@H]3C(=O)N(CC(C)(C)C(=O)O)C[C@@H]32)NC(c2ncoc2C)=N[C@H]1c1ccc(F)cc1Cl` (single isomer, unassigned) [Compound 41, 3-((cis)-1-((6-(2-chloro-4-fluorophenyl)-5-(methoxycarbonyl)-2-(5-methyloxazol-4-yl)-3,6-dihydropyrimidin-4-yl)methyl)-3,3-difluoro-4-oxohexahydropyrrolo[3,4-b]pyrrol-5(1H)-yl)-2,2-dimethylpropanoic acid] were, in that order, 93.8 nM and above 100000 nM.
As to `COC(=O)C1=C(CN2CC(F)(F)[C@@H]3C(=O)N(CC(C)(C)C(=O)O)C[C@@H]32)NC(c2nccs2)=N[C@H]1c1ccc(F)c(F)c1Cl` (single isomer, unassigned) [Compound 42, 3-((cis)-1-((6-(2-Chloro-3,4-difluorophenyl)-5-(methoxycarbonyl)-2-(thiazol-2-yl)-3,6-dihydropyrimidin-4-yl)methyl)-3,3-difluoro-4-oxohexahydropyrrolo[3,4-b]pyrrol-5(1H)-yl)-2,2-dimethylpropanoic acid], in the data set on HBV (setting [2]), the EC50 amounted to 13.8 nM. This molecule showed a CC50 at 6 days in data set [1] above 100000 nM.
The like results for `CCOC(=O)C1=C(CN2CC(F)(F)[C@@H]3C(=O)N(CC(C)(C)C(=O)O)C[C@@H]32)NC(c2nccs2)=N[C@H]1c1cccc(F)c1Cl` (single isomer, unassigned) [Compound 43, 3-((cis)-1-((6-(2-chloro-3-fluorophenyl)-5-(ethoxycarbonyl)-2-(thiazol-2-yl)-3,6-dihydropyrimidin-4-yl)methyl)-3,3-difluoro-4-oxohexahydropyrrolo[3,4-b]pyrrol-5(1H)-yl)-2,2-dimethylpropanoic acid] were, in that order, 4.1 nM and 50200 nM.
The like results for `CCOC(=O)C1=C(CN2CC(F)(F)[C@@H]3C(=O)N([C@H]4CC[C@@H](C(=O)O)CC4)C[C@@H]32)NC(c2nccs2)=N[C@H]1c1cccc(F)c1C` (single isomer, unassigned) [Compound 44A] were, in that order, 56.7 nM and above 100000 nM.
The like results for `CCOC(=O)C1=C(CN2CC(F)(F)[C@@H]3CN(S(=O)(=O)CC(C)(C)C(=O)O)C[C@@H]32)NC(c2nccs2)=N[C@H]1c1cccc(F)c1C` (single isomer, unassigned) [Compound 46] were, in that order, 39.4 nM and 20900 nM.
As to `CCOC(=O)C1=C(CN2CC(F)(F)[C@@H]3CN(CC4(CC(=O)O)CC4)C[C@@H]32)NC(c2nccs2)=N[C@H]1c1cccc(F)c1C` (single isomer, unassigned) [Compound 48], the EC50 in the data set on HBV (setting [2]) is 105 nM. The molecule also displayed a half-maximal cytotoxic concentration (CC50) at 6 days in data set [1] above 100000 nM.
For the molecule `CCOC(=O)C1=C(CN2CC[C@@]3(F)C(=O)N(CCC(C)(C)C(=O)O)C[C@@H]23)NC(c2nccs2)=N[C@H]1c1cccc(F)c1C` (single isomer, unassigned) [Compound 50A], the EC50 with HBV (setting [2]) worked out at 40.8 nM. This molecule also gave a CC50 at 6 days in data set [1] of 49300 nM.
On the same counts, the results for `CCOC(=O)C1=C(CN2CC(F)(F)[C@@H]3CN(c4ncc(C(=O)O)cn4)C[C@@H]32)NC(c2nccs2)=N[C@H]1c1cccc(F)c1C` (single isomer, unassigned) [Compound 54] are 49.2 nM and 55200 nM.
Consider `CCOC(=O)C1=C(CN2CC(F)(F)[C@@H]3CN(C(=O)[C@H]4C[C@@H](C(=O)O)C4)C[C@@H]32)NC(c2nccs2)=N[C@H]1c1cccc(F)c1C` (single isomer, unassigned) [Compound 56B], for which, in the data set with HBV (setting [2]), the concentration giving a half-maximal response (EC50) was 79.2 nM. The molecule further gave a CC50 at 6 days in data set [1] above 100000 nM.
The like results for `CCOC(=O)C1=C(CN2CC(F)(F)[C@@H]3CN(C(=O)[C@@H]4C[C@@H]4C(=O)O)C[C@@H]32)NC(c2nccs2)=N[C@H]1c1cccc(F)c1C` (single isomer, unassigned) [Compound 57B] were, in that order, 92.2 nM and 51200 nM.
On the same counts, the results for `CCOC(=O)C1=C(CN2CC(F)(F)[C@@H]3CN(C(=O)OC(C)(C)C(=O)O)C[C@@H]32)NC(c2nccs2)=N[C@H]1c1cccc(F)c1C` (single isomer, unassigned) [Compound 60] are 49.6 nM and 29400 nM.
`CCOC(=O)C1=C(CN2CC(F)(F)[C@H]3[C@@H]2CCN3C(C)=O)NC(c2nccs2)=N[C@H]1c1cccc(F)c1C` (single isomer, unassigned) [Compound 61]: the concentration giving a half-maximal response (EC50) in the data set with HBV (setting [2]) amounted to 37.3 nM. The midpoint of cytotoxicity in data set [1], the CC50 at 6 days, lay at 21500 nM.
On the same counts, the results for `CCOC(=O)C1=C(CN2CC(F)(F)[C@H]3[C@@H]2CCN3S(C)(=O)=O)NC(c2nccs2)=N[C@H]1c1cccc(F)c1C` (single isomer, unassigned) [Compound 62] are 12.7 nM and 17300 nM.
Take `CCOC(=O)C1=C(CN2CC(F)(F)[C@H]3[C@@H]2CCN3C(=O)NC(N)=O)NC(c2nccs2)=N[C@H]1c1cccc(F)c1C` (single isomer, unassigned) [Compound 63]: the EC50 with HBV (setting [2]) is 11.8 nM. For the same molecule, half-maximal cytotoxicity in data set [1] (CC50 at 6 days) was put at 25200 nM.
With `CCOC(=O)C1=C(CN2CC(F)(F)[C@@H]3[C@H]2CN(C(=O)[C@H]2CC2(F)F)N3CCC(C)(C)C(=O)O)NC(c2nccs2)=N[C@H]1c1cccc(F)c1C` (single isomer, unassigned) [Compound 72A], in the data set on HBV (setting [2]), the EC50 is 55 nM. Further, the 50% cytotoxic concentration (CC50) at 6 days in data set [1] was found to be 14500 nM.
The like results for `CCOC(=O)C1=C(CN2CC(F)(F)[C@@H]3[C@H]2CN(C(=O)C2CC2)N3CCC(C)(C)C(=O)O)NC(c2nccs2)=N[C@H]1c1cccc(F)c1C` (single isomer, unassigned) [Compound 73] were, in that order, 17 nM and 26000 nM.
As to `CCOC(=O)C1=C(CN2CC(F)(F)[C@@H]3[C@H]2CN(C(=O)C(C)C)N3CCC(C)(C)C(=O)O)NC(c2nccs2)=N[C@H]1c1cccc(F)c1C` (single isomer, unassigned) [Compound 74], the 50% effective concentration (EC50) in the data set on HBV (setting [2]) worked out at 38 nM. The same molecule came in with a half-maximal cytotoxic concentration (CC50) at 6 days in data set [1] of 16600 nM.
`CCOC(=O)C1=C(CN2CC(F)(F)[C@@H]3[C@H]2CN(C(=O)C(F)F)N3CCC(C)(C)C(=O)O)NC(c2nccs2)=N[C@H]1c1cccc(F)c1C` (single isomer, unassigned) [Compound 75] had a half-maximal effective concentration (EC50) in the data set with HBV of 40 nM. The same molecule registered a CC50 at 6 days in data set [1] of 22600 nM.
On to `CCOC(=O)C1=C(CN2CC(F)(F)[C@@H]3[C@H]2CN(C(N)=O)N3CCC(C)(C)C(=O)O)NC(c2nccs2)=N[C@H]1c1cccc(F)c1C` (single isomer, unassigned) [Compound 76A], for which the 50% effective concentration (EC50) in the data set on HBV (setting [2]) was found to be 11 nM. Also, in data set [1], it took 28200 nM to reach half-maximal cytotoxicity (CC50 at 6 days).
The like results for `CCOC(=O)C1=C(CN2CC(F)(F)[C@H]3[C@@H]2CN(C(C)=O)N3CCC(C)(C)C(=O)O)NC(c2nccs2)=N[C@H]1c1ccc(F)c(F)c1Cl` (single isomer, unassigned) [Compound 77B, 4-((cis)-2-acetyl-4-((6-(2-chloro-3,4-difluorophenyl)-5-(ethoxycarbonyl)-2-(thiazol-2-yl)-3,6-dihydropyrimidin-4-yl)methyl)-6,6-difluorohexahydropyrrolo[3,2-c]pyrazol-1(2H)-yl)-2,2-dimethylbutanoic acid] were, in that order, 15 nM and 17500 nM.
As for `COC(=O)C1=C(CN2CC(F)(F)[C@@H]3[C@H]2CN(C(C)=O)N3CCC(C)(C)C(=O)O)NC(c2nccs2)=N[C@H]1c1ccc(F)c(F)c1Cl` (single isomer, unassigned) [Compound 79A, 4-((cis)-2-acetyl-4-((6-(2-chloro-3,4-difluorophenyl)-5-(methoxycarbonyl)-2-(thiazol-2-yl)-3,6-dihydropyrimidin-4-yl)methyl)-6,6-difluorohexahydropyrrolo[3,2-c]pyrazol-1(2H)-yl)-2,2-dimethylbutanoic acid], the EC50 in the data set on HBV (setting [2]) was 40 nM. The molecule further came in with a CC50 at 6 days in data set [1] above 50000 nM.
